Source: patent US10138275B2, “Crystalline powder of cyclic peptide compound, preparation method for same, and uses thereof” (SHANGHAI TECHWELL BIOPHARMACEUTICAL CO., LTD, priority 2014, dated 2018)
Starred links: 1 amine or outer side, 2 acyl side, 3 side chain; linkers in the order of their positions; H or OH if unused. Positions of bridges follow the written chain, without caps; N, C: chain ends. Non-standard residues stand in square brackets, D forms with d. Residues, ends and D or L forms follow the SMILES beside them. *: point of attachment. hTyr(3S-OH,4S-OH,3'-OSO3H) = N[C@H](C(=O)O)[C@H](O)[C@@H](O)c1ccc(O)c(OS(=O)(=O)O)c1; Orn(4R-OH,5R-OH) = O=C([C@H](C[C@@H](O)[C@@H](O)N[*:3])N[*:1])[*:2]; Pro(3S-OH,4S-Me) = C[C@H]1CN[C@H](C(=O)O)[C@H]1O; X1 = CCCCCOc1ccc(-c2cc(-c3ccc(C(=O)*)cc3)no2)cc1; Gln(3R-OH) = NC(=O)C[C@@H](O)[C@H](N)C(=O)O; Hyp = O=C(O)[C@@H]1C[C@@H](O)CN1

What was measured:
[1] = Ohigashi et al. 2006, cited from earlier work
[2] = Ratio of dry weight to wet weight (Dry/Wet) of filtered solids; type: physicochemical; details: wet solids weighed after filtration, before drying
Excerpt: As used herein, the term “Dry/Wet” and “ratio of dry weight to wet weight” can be used interchangeably, both of which refer to the ratio of the weight of a compound without solvent(s) to the weight of the compound with solvent(s). In the present invention, wet weight of crystals is obtained by filtering the crystallized solids until no noticeable droplet outflows and weighing the solids.

[3] = Vacuum-drying at 25° C. with a water system until no organic solvent detected by GC; purity by HPLC; type: physicochemical; details: for time Needed (for drying): 25° C., vacuum-drying with a water system until no organic solvent detected by GC; for Purity before drying / Purity after drying: HPLC; for Purity before drying: 5 g of solids; for Purity after drying: vacuum-dried at 25° C. with a water system until no organic solvent detected by GC
Excerpt: High performance liquid chromatography (HPLC) is a common method for determining the purity of a compound, wherein a liquid is used as the mobile phase and a high-pressure transfusion system is used for pumping the mobile phase, such as single solvents with different polarities, a mixture of solvents at different proportions, or buffers, into a column packed with a stationary phase. Each component is separated in the column, and then enters into a detector for detection, thereby analyzing a sample. In the present invention, HPLC is used for determining the purity of the compound of formula I and studying the stability of a sample. Conditions of the HPLC method are listed as follows:
Analysis Column: YMC-ODS 250×4.6 mm, 5 μm;
Mobile phase: acetonitrile:phosphate buffer (pH 3.0)=45:70;
Column temperature: 35° C.;
Diluent: aqueous phosphate buffer;
Detection wavelength: 210 nm;
Gas chromatography (GC) used to separate and measure trace impurities in a compound is an accurate, qualitative and quantitative method of analysis. In the present invention, the content of organic solvents in the crystalline powder of the compound of formula I obtained in the present invention is measured by gas chromatography (GC).
5 g of solids were prepared according to the methods of Examples 2-10 and Comparative Examples 1-3 respectively, placed at 25° C., and vacuum-dried together with a water system until no organic solvent was detected through GC. The time for drying was compared, and the purity of the sample was analyzed.

[4] = Filtration through a Buchner funnel until no noticeable droplet outflowed; type: physicochemical
Excerpt: In this example, the precipitated solids from Examples 2-10 and Comparative Examples 1-3 were filtered through a Buchner funnel until no noticeable droplet outflowed, and the filtration processes were compared.

[5] = Exposure of dried B82 crystal to the environment (moisture uptake, stability); type: physicochemical
Excerpt: Before drying of the crystals, the content of solvent in the compound of formula I (Dry/Wet) was about 0.25, and a large amount of organic solvent was trapped in the crystal. To render the content of solvent in compliance with the requirements for active pharmaceutical ingredients (API), the drying temperature or the drying time has to be increased during the drying process. Such drying process, however, will increase the degradation product of the compound of formula I, seriously affecting the quality and stability of API.

[6] = Particle size distribution (d10, d50) by Malvern particle size analyzer / laser diffraction; type: physicochemical; details: for d10, particle size of the crystalline powder / d50, particle size of the crystalline powder: after drying
Protocol: […] Wherein, d10 and d50 are means known for indicating the particle size distribution. d50 refers to a value of particle size, and the size of 50 vol/% of particles is smaller than said value. D10 refers to a value of particle size, and the size of 10 vol/% of particles is smaller than said value. The preferred method for determining d10 and d50 is laser diffraction, d50 of the crystalline powder of the compound of formula I according to the present invention is determined as 10-100 um, and d10 is determined as 1-9 um. Preferably, d50 of the crystalline powder is 20-50 um, and d10 thereof is 1-5 um. Before solid-liquid separation, d50 of the crystalline powder of the compound of formula I is 10-100 um, and d10 thereof is 1-9 um. Preferably, d50 of the crystalline powder is 20-50 um, and d10 thereof is 3-6 um.

[7] = Bulk density of powder by cylinder measurement; type: physicochemical; details: after drying
Protocol: “Bulk density of powder” is a measurement standard for the relative importance of the interaction between microparticles by comparing the bulk density and tapped density of the powder. Methods for measuring bulk density of powder are known in the art; for example, it can be determined by cylinder measurement, volumetric measurement, and container measurement. Bulk density of the crystalline powder of the compound of formula I according to the present invention is determined as less than 0.7 g/mL, preferably less than 0.6 g/mL, most preferably less than 0.5 g/mL, by cylinder measurement.

Compound | content of solvent in the precipitate ([1]; amorphous precipitate before drying) | Dry/Wet of the precipitate before drying ([1]; amorphous precipitate from acetone/ethyl acetate) | ratio of dry weight to wet weight (Dry/Wet) [2] | time Needed (for drying) [3] | Purity before drying [3] | Purity after drying [3] | Time for filtration [4] | moisture absorption when exposed to the environment [5] | stability when exposed to the environment [5] | ratio of dry weight to wet weight (Dry/Wet) ([2]; listed as B82-type crystals) | d50 of the obtained crystals ([6]; B82-type crystal prepared per Example 1 of WO03/018615) | d10, particle size of the crystalline powder [6] | d50, particle size of the crystalline powder [6] | Bulk density [7] | Bulk density ([7]; listed as B82-type crystals)
CCCCCOc1ccc(-c2cc(-c3ccc(C(=O)N[C@H]4C[C@@H](O)[C@@H](O)NC(=O)[C@@H]5[C@@H](O)[C@@H](C)CN5C(=O)[C@H]([C@H](O)CC(N)=O)NC(=O)[C@H]([C@H](O)[C@@H](O)c5ccc(O)c(OS(=O)(=O)[O-])c5)NC(=O)[C@@H]5C[C@@H](O)CN5C(=O)[C@H]([C@@H](C)O)NC4=O)cc3)no2)cc1.[Na+] [compound of formula I, 5-[(1S,2S)-2-[(3S,6S,9S,11R,15S,18S,20R,21R,24S,25S,26S)-3-[(R)-2-carbamoyl-1-hydroxyethyl]-11,20,21,25-tetrahydroxy-15-[(R)-1-hydroxyethyl]-26-methyl-2,5,8,14,17,23-hexaoxo-18-[4-[5-(4-pentoxyphenyl)isoxazol-3-yl]benzoylamino]-1,4,7,13,16,22-hexaazatricyclo[22.3.0.0.0^9,13]heptacosan-6-yl]-1,2-dihydroxyethyl]-2-hydroxy phenyl sulfate] (X1-[Orn(4R-OH,5R-OH)]T[Hyp][hTyr(3S-OH,4S-OH,3'-OSO3H)][Gln(3R-OH)][Pro(3S-OH,4S-Me)]; lactam 1-C) | about 75% | 0.25 | – | – | – | – | – | – | – | – | – | – | – | – | –
CCCCCOc1ccc(-c2cc(-c3ccc(C(=O)N[C@H]4C[C@@H](O)[C@@H](O)NC(=O)[C@@H]5[C@@H](O)[C@@H](C)CN5C(=O)[C@H]([C@H](O)CC(N)=O)NC(=O)[C@H]([C@H](O)[C@@H](O)c5ccc(O)c(OS(=O)(=O)[O-])c5)NC(=O)[C@@H]5C[C@@H](O)CN5C(=O)[C@H]([C@@H](C)O)NC4=O)cc3)no2)cc1.[Na+] [Comparative Example 3, reference compound] (X1-[Orn(4R-OH,5R-OH)]T[Hyp][hTyr(3S-OH,4S-OH,3'-OSO3H)][Gln(3R-OH)][Pro(3S-OH,4S-Me)]; lactam 1-C) | – | – | 0.1 | 32 h | 98.74% | 96.17% | 300 min | – | – | – | – | – | – | – | –
CCCCCOc1ccc(-c2cc(-c3ccc(C(=O)N[C@H]4C[C@@H](O)[C@@H](O)NC(=O)[C@@H]5[C@@H](O)[C@@H](C)CN5C(=O)[C@H]([C@H](O)CC(N)=O)NC(=O)[C@H]([C@H](O)[C@@H](O)c5ccc(O)c(OS(=O)(=O)[O-])c5)NC(=O)[C@@H]5C[C@@H](O)CN5C(=O)[C@H]([C@@H](C)O)NC4=O)cc3)no2)cc1.[Na+] [Comparative Example 1, reference compound] (X1-[Orn(4R-OH,5R-OH)]T[Hyp][hTyr(3S-OH,4S-OH,3'-OSO3H)][Gln(3R-OH)][Pro(3S-OH,4S-Me)]; lactam 1-C) | – | – | 0.25 | 25 h | 99.26% | 97.96% | 90 min | inclined to absorb moisture | poor stability | about 0.25 | 0.2-1.0 um | 0.25 um | 0.7 um | 0.85 g/mL | about 0.8 g/mL
CCCCCOc1ccc(-c2cc(-c3ccc(C(=O)N[C@H]4C[C@@H](O)[C@@H](O)NC(=O)[C@@H]5[C@@H](O)[C@@H](C)CN5C(=O)[C@H]([C@H](O)CC(N)=O)NC(=O)[C@H]([C@H](O)[C@@H](O)c5ccc(O)c(OS(=O)(=O)[O-])c5)NC(=O)[C@@H]5C[C@@H](O)CN5C(=O)[C@H]([C@@H](C)O)NC4=O)cc3)no2)cc1.[Na+] [Comparative Example 2, reference compound] (X1-[Orn(4R-OH,5R-OH)]T[Hyp][hTyr(3S-OH,4S-OH,3'-OSO3H)][Gln(3R-OH)][Pro(3S-OH,4S-Me)]; lactam 1-C) | – | – | 0.13 | 30 h | 98.82% | 96.21% | 150 min | – | – | – | – | – | – | – | –
CCCCCOc1ccc(-c2cc(-c3ccc(C(=O)N[C@H]4C[C@@H](O)[C@@H](O)NC(=O)[C@@H]5[C@@H](O)[C@@H](C)CN5C(=O)[C@H]([C@H](O)CC(N)=O)NC(=O)[C@H]([C@H](O)[C@@H](O)c5ccc(O)c(OS(=O)(=O)[O-])c5)NC(=O)[C@@H]5C[C@@H](O)CN5C(=O)[C@H]([C@@H](C)O)NC4=O)cc3)no2)cc1.[Na+] [Example 7] (X1-[Orn(4R-OH,5R-OH)]T[Hyp][hTyr(3S-OH,4S-OH,3'-OSO3H)][Gln(3R-OH)][Pro(3S-OH,4S-Me)]; lactam 1-C) | – | – | 0.69 | 9.5 h | 99.65% | 99.57% | – | – | – | – | – | 1 um | 10 um | 0.6 g/mL | –
